Results: patent US20250188110A1, “SPECIFIC SMALL MOLECULE INHIBITORS THAT BLOCK KMT9 METHYLTRANSFERASE ACTIVITY AND FUNCTION” (ALBERT-LUDWIGS-UNIVERSITÄT FREIBURG, priority 2021, published 2025)
Where two headings read alike, the source gives them in different places.

Assays:
KMT9 [1] = molecular target: T1, KMT9 (Homo sapiens, UniProt Q9Y5N5); test: KMT9 methyltransferase inhibition assay, 3H-SAM scintillation (entries 1-154); type: biochemical; details: entries 1-154: 3H-SAM assay, 25 nM KMT9, 5 μM ETF1
T1 sequence (Q9Y5N5 1-214): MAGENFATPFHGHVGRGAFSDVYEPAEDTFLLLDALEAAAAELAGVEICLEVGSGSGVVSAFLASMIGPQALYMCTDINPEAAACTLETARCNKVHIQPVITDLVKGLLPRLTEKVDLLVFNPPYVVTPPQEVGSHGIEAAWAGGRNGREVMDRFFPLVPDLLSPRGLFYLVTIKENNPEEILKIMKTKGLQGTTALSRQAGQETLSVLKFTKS
T1 sequence (Q9UI30 1-120 isoform Q9UI30-2 partner): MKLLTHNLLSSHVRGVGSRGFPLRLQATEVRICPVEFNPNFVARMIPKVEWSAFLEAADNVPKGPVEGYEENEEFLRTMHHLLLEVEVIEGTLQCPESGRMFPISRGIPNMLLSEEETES
Protocol: The assay was carried out in 0.5 mL Eppendorf tubes in duplicates. Assay buffer consisted of 50 mM BTP, 1 mM MgCl2, 1 mM DTT and 0.01% Triton-X^100 at a pH of 8.5 (adjusted using 1 M HCl and 1 M NaOH). 20X inhibitor stock (in DMSO), 2X enzyme stock and 4X substrate mix (both in assay buffer) were prepared. The substrate mix consisted of Tritium-labelled S-adenosylmethionine (3H-SAM), S-adenosylmethionine (SAM) and eukaryotic peptide chain release factor subunit1 (Homo sapiens, residues 140-275)(ETF1). Final assay concentrations were set to 25 nM KMT9, 0.3 μM 3H-SAM, 0.7 µM SAM and 5 μM ETF1. […] 5 μL of 4x substrate mix was added to initiate the reaction. The final reaction volume was 20 μL. For the positive control, the compound of formula (I) was replaced by DMSO; for the negative control, the compound of formula (I) was replaced by DMSO and KMT9 was replaced by assay buffer. The reaction mix was incubated in an Eppendorf thermomixer comfort at 30° C. for 2 h, shaking at 300 rpm. The reaction was quenched using 5 μL 50% trichloroacetic acid (TCA) and incubated at 25° C. for 5 minutes. 22 μL of the mixture was transferred into 96-well MultiScreen@HTS FB filter plates (Merck KGaA, Darmstadt, Germany) and washed four times with 10% TCA and two times with 100% ethanol. The plate was dried overnight, the filters were transferred into individual 6 mL Pony Vials (Perkin Elmer Inc, Waltham, MA, USA) and incubated in 3 mL of Ultima Gold scintillation cocktail (Perkin Elmer Inc, Waltham, MA, USA) for 30 minutes. The scintillation signal was measured for 3x 1 min using TriCarb 2910 TR (Perkin Elmer) scintillation counter in 3H CPM mode (LL: 0, UL: 18.6). Inhibition was calculated using the following formula: […]
With xc: signal of compound, Xpos: mean signal of positive control, Xneg: mean signal of negative control. Data fitting was carried out by GraphPad 7.0 using nonlinear fit ([Inhibitor]vs. response-variable slope (four parameters)).
For the results of the methyltransferase inhibition assay shown as “Inhibition” in Table 1, “I” represents an IC50 less than 0.1 μM, “II” represents an IC50 equal or higher than 0.1 μM and less than 1 μM, “III” represents an IC50 equal or higher than 1 µM and less than 10 µM and “IV” represents an IC50 equal or higher than 10 µM

KMT9 [2] = molecular target: T1, KMT9; test: Microscale thermophoresis (MST) KMT9 binding
Protocol: To determine the binding affinity of the compounds according to the present invention and KMT9, microscale thermophoresis (MST) analysis was performed with a NanoTemper Monolith NT.115 instrument (NanoTemper Technologies GmbH). KMT9 was labelled with a RED-Tris-NTA labelling kit (NanoTemper Technologies GmbH) based on the manufacturer's instructions. Buffer including 25 mM HEPES (pH 7.5), 100 mM NaCl, 1 mM DTT and 0.05% Tween was used for the reaction buffer. Varying concentrations of the tested compounds of formula (I) as indicated in Table 1 were titrated against His-tag labelled KMT9 proteins (20 nM). Samples were loaded into standard Capillaries (NanoTemper Technologies GmbH) and MST measurements were performed using 40% MST power and 100% LED power. For each set of binding experiments, MST measurement was carried out with Binding Affinity module in MO.Control program under Nano-RED Excitation. Datasets were processed with the MO.Affinity Analysis software (NanoTemper Technologies GmbH).
For the results of the microscale thermophoresis (MST) assay shown as “MST” in Table 1, “A” represents a Kd of equal to or less than 10 nM (Kd≤10 nM); “B” represents a Kd of greater than 10 nM and equal to or less than 100 nM (10 nM<Kd<100 nM); “C” represents a Kd of greater than 100 nM and equal to or less than 1000 nM (100 nM<Kd ≤ 1000 nM); “D” represents a Kd of greater than 1000 nM (1000 nM<Kd).

KMT9 [3] = molecular target: T1, KMT9; test: KMT9 thermal shift assay (SyproOrange); type: binding; details: 500 µM compound
Protocol: The assay was carried out in 96-well Hard-Shell PCR plates (Bio-Rad Laboratories Inc.). Assay buffer consisted of 50 mM BTP, 1 mM MgCl2 and 1 mM DTT at a pH of 8.5 (adjusted using 1 M HCl and 1 M NaOH). 20X inhibitor stock (in DMSO), 2X enzyme stock and 4X SyproOrange (SO) stock (both in assay buffer) were prepared. 1 μL of 20X compound, 4 μL of assay buffer, 10 μL of 2X KMT9 and 5 μL of 4X SO were pipetted. For the no-compound control, 20X inhibitor stock was replaced by DMSO. The final volume was 20 μL. The plate was spun down at 700 rpm for 1 min using a Hettich UNIVERSAL 320 centrifuge and incubated at 25° C., shaking at 600 rpm. After incubation, the plate was spun down for 1 min at 700 rpm and measurement was conducted using a CFX96 Touch Real-Time PCR Detection System (Bio-Rad Laboratories Inc.). The plate was equilibrated at 20° C. for 4 min and then heated stepwise at a rate of 1° C. per 15 s until 95° C. After every step, fluorescence was measured in FRET mode. Calculation of melting points was conducted by a Boltzman sigmoidal model using GraphPad Prism 7.0.
For the results of the thermal shift assay shown as “Thermal shift” in Table 1, “++++” represents a ΔTm of greater 20 K, “+++” represents a ΔTm of greater than 15 K and less than or equal to 20 K (15 K<ΔTm≤20 K); “++” represents a ΔTm of greater than 10 K and less than or equal to 15 K (10 K<ΔTm ≤ 15 K); “+” represents a ΔTm of equal to or less than 10 K (ΔTm≤10 K).

[4] = microscale thermophoresis, His-tag labelled KMT9 (20 nM), read-out: MST
[5] = ΔTm, 2 μM KMT9, 5X SO, read-out: Thermal shift
[6] = 2 μM KMT9, read-out: Thermal shift (ΔTm)

SMILES	IC50 (KMT9 [1])	Kd (KMT9 [2]; [4])	ΔTm at 500 µM (KMT9 [3]; [5])	Kd (KMT9 [2]; His-tag labelled KMT9 20 nM, read-out: MST (Kd))	ΔTm at 500 µM (KMT9 [3]; [6])
O[C@@H]1[C@@H](CNCCCNCCc2ccccc2)C[C@@H](n2cc(-c3[nH]ncc3Cl)c3cncnc32)[C@@H]1O [Compound 633, (1R,2S,3R,5R)-3-(5-(4-Chloro-1H-pyrazol-5-yl)-7H-pyrrolo[2,3-d]pyrimidin-7-yl)-5-(((3-(phenethylamino)propyl)amino)methyl)cyclopentane-1,2-diol]	1000 to 10000 nM	> 1000 nM	≤ 10 °C		
COCCn1cc(COc2ccc(CNCCCNC[C@H]3O[C@@H](n4cnc5c(N)ncnc54)[C@H](O)[C@@H]3O)cc2)nn1 [293 (190), (2R,3R,4S,5R)-2-(6-amino-9H-purin-9-yl)-5-(((3-((4-((1-(2-methoxyethyl)-1/-1,2,3-triazol-4-yl)methoxy)benzyl)amino)propyl)amino)methyl)tetrahydrofuran-3,4-diol]	> 10000 nM	> 1000 nM	≤ 10 °C		
CNc1ncnc2c1ccn2[C@@H]1C[C@H](CCCCCNCCc2ccccc2)[C@@H](O)[C@H]1O [424 (295), (1R,2S,3R,5S)-3-(4-(Methylamino)-7H-pyrrolo[2,3-d]pyrimidin-7-yl)-5-(5-(phenethylamino)pentyl) cyclopentane-1,2-diol]	1000 to 10000 nM	100 to 1000 nM	10 to 15 °C		
CN(C)C(=O)[C@H]1C[C@@H](n2cc3c4c(ncnc42)NCCC3)[C@H](O)[C@@H]1O [Compound 625, (1S,2R,3S,4R)-2,3-Dihydroxy-N,N-dimethyl-4-(6,7,8,9-tetrahydro-2H-2,3,5,6-tetraazabenzo[cd]azulen-2-yl)cyclopentane-1-carboxamide]	> 10000 nM	> 1000 nM	≤ 10 °C		
COCCn1cc(-c2ccc(CCNCCCNC[C@H]3O[C@@H](n4cnc5c(N)ncnc54)[C@H](O)[C@@H]3O)cc2)nn1 [295 (192), (2R,3R,4S,5R)-2-(6-amino-9H-purin-9-yl)-5-(((3-((4-(1-(2-methoxyethyl)-1H-1,2,3-triazol-4-yl)phenethyl)amino)propyl)amino)methyl)tetrahydrofuran-3,4-diol]	> 10000 nM	100 to 1000 nM	≤ 10 °C		
C=Cc1cn([C@@H]2C[C@H](CNCCCNCCc3ccccc3)[C@@H](O)[C@H]2O)c2ncnc(C)c12 [Compound 610, (1R,2S,3R,5R)-3-(4-Methyl-5-vinyl-7H-pyrrolo[2,3-d]pyrimidin-7-yl)-5-(((3-(phenethylamino)propyl)amino)methyl)cyclopentane-1,2-diol]	> 10000 nM	> 1000 nM	≤ 10 °C		
CNc1ncnc2c1ccn2[C@@H]1C[C@H]([C@@H]2C[C@@H]2CCCNCCc2ccccc2)[C@@H](O)[C@H]1O [Compound 683, (1R,2S,3R,5R)-3-(4-(methylamino)-7H-pyrrolo[2,3-d]pyrimidin-7-yl)-5-((1R,2S)-2-(3-(phenethylamino)propyl)cyclopropyl)cyclopentane-1,2-diol]		> 1000 nM	≤ 10 °C		
Nc1ncnc2c1ncn2[C@@H]1O[C@H](C(=O)NCCCNCCc2ccc3ccccc3c2)[C@@H](O)[C@H]1O [688 (222), (2S,3S,4R,5R)-5-(6-amino-9H-purin-9-yl)-3,4-dihydroxy-N-(3-((2-(naphthalen-2-yl)ethyl)amino)propyl) tetrahydrofuran-2-carboxamide]	> 10000 nM				
Nc1ncnc2c1c(-c1ccccc1)cn2[C@@H]1C[C@H](CNCCCNCCc2ccc(F)cc2)[C@@H](O)[C@H]1O [340 (244), (1R,2S,3R,5R)-3-(4-amino-5-phenyl-7H-pyrrolo[2,3-d]pyrimidin-7-yl)-5-(((3-((4-fluorophenethyl)amino)propyl)amino)methyl) cyclopentane-1,2-diol]	100 to 1000 nM	10 to 100 nM			
Nc1nc(Cl)nc2c1c(-c1ccn(S(=O)(=O)c3ccccc3)n1)cn2[C@@H]1C[C@H](C2CCN(CC3CC3)CC2)[C@@H](O)[C@H]1O [Compound 520, (1R,2S,3R,5R)-3-{4-Amino-5-[1-(benzenesulfonyl)pyrazol-3-yl]-2-chloropyrrolo[2,3-d]pyrimidin-7-yl}-5-[1-(cyclopropylmethyl)piperidin-4-yl]cyclopentane-1,2-diol]				≤ 10 nM	> 20 °C

Continued, values first:

IC50 (KMT9 [1])	Kd (KMT9 [2]; [4])	ΔTm at 500 µM (KMT9 [3]; [5])	Kd (KMT9 [2]; His-tag labelled KMT9 20 nM, read-out: MST (Kd))	ΔTm at 500 µM (KMT9 [3]; [6])	SMILES
> 10000 nM	> 1000 nM	≤ 10 °C			Nc1ncnc2c1c(-c1nccs1)cn2[C@@H]1C[C@H](CC2CNC2)[C@@H](O)[C@H]1O [Compound 486, (1R,2S,3R,5S)-3-(4-amino-5-(thiazol-2-yl)-7H-pyrrolo[2,3-d]pyrimidin-7-yl)-5-(azetidin-3-ylmethyl) cyclopentane-1,2-diol]
				≤ 10 °C	O[C@@H]1[C@H](O)[C@@H]([C@H]2CCCNC2)C[C@H]1n1ccc2c(C(F)F)ncnc21 [Compound 403, (1R,2S,3R,5R)-3-(4-(difluoromethyl)-7H-pyrrolo[2,3-d]pyrimidin-7-yl)-5-((R)-piperidin-3-yl) cyclopentane-1,2-diol]
				≤ 10 °C	O[C@@H]1[C@H](O)[C@@H]([C@@H]2CCCNC2)C[C@H]1n1cc(-c2nccs2)c2cncnc21 [Compound 401, (1S,2R,3R,5R)-3-((S)-piperidin-3-yl)-5-(5-(thiazol-2-yl)-7//pyrrolo[2,3-a]pyrimidin-7-yl) cyclopentane-1,2-diol]
				≤ 10 °C	O[C@@H]1[C@H](O)[C@@H]([C@H]2CCCNC2)C[C@H]1n1cc(-c2nccs2)c2cncnc21 [Compound 402, (1S,2R,3R,5R)-3-((R)-piperidin-3-yl)-5-(5-(thiazol-2-yl)-7H-pyrrolo[2,3-a]pyrimidin-7-yl) cyclopentane-1,2-diol]
